Tested on: Canis familiaris
Experiment: Compound was tested in vivo for inhibition of serum TXB2 formation in conscious dog at a oral dose of 1 mg/kg
Format: functional
Conditions: Canis lupus familiaris

With `Cc1ccc(OC(C)(C)[C@H]2OC[C@@H](C/C=C\CCC(=O)O)[C@@H](c3cncs3)O2)c([N+](=O)[O-])c1` the inhibition in vivo at 1 mg/kg was 60%.

Tested on: Canis familiaris
Experiment: Compound was tested in vivo for blockade of U 46619-induced platelet aggregation in conscious dog at a oral dose of 1 mg/kg; Expressed as Concentration ratio
Format: functional, Canis lupus familiaris
Conditions: not given

`Cc1ccc(OC(C)(C)[C@H]2OC[C@@H](C/C=C\CCC(=O)O)[C@@H](c3cncs3)O2)c([N+](=O)[O-])c1` gave an Activity greater than 50.

Molecular target: T1, Thromboxane-A synthase (Homo sapiens, UniProt P24557)
T1 sequence (P24557 whole entry): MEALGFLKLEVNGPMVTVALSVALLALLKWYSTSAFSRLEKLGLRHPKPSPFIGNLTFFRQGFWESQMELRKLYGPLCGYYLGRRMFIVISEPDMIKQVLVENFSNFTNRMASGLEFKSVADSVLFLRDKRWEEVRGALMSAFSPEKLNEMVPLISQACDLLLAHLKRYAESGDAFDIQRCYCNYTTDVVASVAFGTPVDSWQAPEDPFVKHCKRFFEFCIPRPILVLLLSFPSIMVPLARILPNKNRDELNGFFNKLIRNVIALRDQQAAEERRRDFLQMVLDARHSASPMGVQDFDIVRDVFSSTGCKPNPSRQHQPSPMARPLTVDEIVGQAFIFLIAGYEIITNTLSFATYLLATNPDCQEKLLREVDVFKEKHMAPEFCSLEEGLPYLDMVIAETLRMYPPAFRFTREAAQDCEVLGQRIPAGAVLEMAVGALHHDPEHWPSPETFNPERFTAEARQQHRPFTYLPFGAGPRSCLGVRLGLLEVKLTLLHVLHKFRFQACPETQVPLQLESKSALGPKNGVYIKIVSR
Experiment: Inhibition of human Thromboxane A2 synthase
Conditions: not given

Point of comparison: `CC1(C)OC[C@@H](C/C=C\CCC(=O)O)[C@@H](c2cncs2)O1`, IC50 80 nM. Against it:
- Cn1cncc1[C@H]1OC(C)(C)OC[C@H]1C/C=C\CCC(=O)O — within 1.5-fold, 70 nM
- Cc1ccc(OC(C)(C)[C@H]2OC[C@@H](C/C=C\CCC(=O)O)[C@@H](c3cccnc3)O2)c([N+](=O)[O-])c1 — 4.2-fold lower, 19 nM
- Cc1ccc(OC(C)(C)[C@H]2OC[C@@H](C/C=C\CCC(=O)O)[C@@H](c3cncs3)O2)c([N+](=O)[O-])c1 — 4.4-fold lower, 18 nM
- CC1(C)OC[C@@H](C/C=C\CCC(=O)O)[C@@H](c2cnccn2)O1 — higher, > 10000 nM
- CCCCCCn1cncc1[C@H]1O[C@@H](C(C)(C)Oc2ccc(C)cc2[N+](=O)[O-])OC[C@H]1C/C=C\CCC(=O)O — 6.1-fold higher, 490 nM
- CC1(C)OC[C@@H](C/C=C\CCC(=O)O)[C@@H](c2cnco2)O1 — higher, > 10000 nM
- CC1(C)OC[C@@H](C/C=C\CCC(=O)O)[C@@H](c2cccs2)O1 — 51-fold higher, 4100 nM
- CCCCCCn1cncc1[C@H]1OC(C)(C)OC[C@H]1C/C=C\CCC(=O)O — 11-fold higher, 900 nM
- CC1(C)OC[C@@H](C/C=C\CCC(=O)O)[C@@H](c2ccnnc2)O1 — 92-fold higher, 7400 nM
- CC1(C)OC[C@@H](C/C=C\CCC(=O)O)[C@@H](c2cncnc2)O1 — higher, > 10000 nM
- Cc1ccc(OC(C)(C)[C@H]2OC[C@@H](C/C=C\CCC(=O)O)[C@@H](c3cncn3C)O2)c([N+](=O)[O-])c1 — 1.6-fold lower, 50 nM
- CC1(C)OC[C@@H](C/C=C\CCC(=O)O)[C@@H](c2cccnc2)O1 — 1.5-fold higher, 120 nM

Molecular target: T2, Thromboxane A2 receptor (Homo sapiens, UniProt P21731)
T2 sequence (P21731 whole entry): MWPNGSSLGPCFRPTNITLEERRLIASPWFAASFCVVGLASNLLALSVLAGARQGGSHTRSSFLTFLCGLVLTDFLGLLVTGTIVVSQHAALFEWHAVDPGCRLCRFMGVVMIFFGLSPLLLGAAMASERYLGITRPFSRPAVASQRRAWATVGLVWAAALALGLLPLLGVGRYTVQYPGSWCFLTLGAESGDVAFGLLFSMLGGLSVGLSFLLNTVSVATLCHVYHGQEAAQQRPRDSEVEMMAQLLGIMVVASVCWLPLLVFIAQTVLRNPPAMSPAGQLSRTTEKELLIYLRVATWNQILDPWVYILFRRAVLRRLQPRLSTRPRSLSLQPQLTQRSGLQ
Experiment: Antagonistic potency against Thromboxane A2 receptor expressed as inhibition of U 46619-induced platelet aggregation in human platelet rich plasma.
Format: functional
Conditions: read-out: pA2 (converted)

Point of comparison: `CCCCCCn1cncc1[C@H]1O[C@@H](C(C)(C)Oc2ccc(C)cc2[N+](=O)[O-])OC[C@H]1C/C=C\CCC(=O)O`, Kb 200 nM. Against it:
- Cc1ccc(OC(C)(C)[C@H]2OC[C@@H](C/C=C\CCC(=O)O)[C@@H](c3cccnc3)O2)c([N+](=O)[O-])c1 — 50-fold lower, 3.98 nM
- Cc1ccc(OC(C)(C)[C@H]2OC[C@@H](C/C=C\CCC(=O)O)[C@@H](c3cncs3)O2)c([N+](=O)[O-])c1 — 40-fold lower, 5.01 nM
- Cc1ccc(OC(C)(C)[C@H]2OC[C@@H](C/C=C\CCC(=O)O)[C@@H](c3cncn3C)O2)c([N+](=O)[O-])c1 — 50-fold lower, 3.98 nM

Reference: ChEMBL document CHEMBL1126340, “Dual-acting thromboxane receptor antagonist/synthase inhibitors: heterocyclic variations” (Bioorg Med Chem Lett, 1992)
